{
  "source": "paper PMC7645643",
  "about": "(Engineering in Life Sciences, 2020)",
  "origin": "cited, not measured here",
  "data": [
    {"substance": "Enfuvirtide [T-20]", "values": [
      {"measurement": "in vivo half-life", "value": "approximately 4 h"}
    ]}
  ]
}
